Among the test systems are HS 578T breast; BT-549 breast; RXF 393 renal.
What all share (assay): NCI anticancer screen, dose series, 48 h

GI50 and TGI data for 23 compounds are collected here from PubChem BioAssay (NCI).

Where “and” joins values, the source holds several entries; their conditions need not be identical. Identical values can stand only once.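 Test compounds were applied to cells in 96-well plates for 48 hours at 5 doses. Here, GI50 denotes the concentration required for 50% inhibition of growth. Definition used: TGI = concentration required for complete inhibition of growth.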

Consider `COc1ccc2c(c1)/C(=C/c1cc(OC)c(OC)c(OC)c1)C(=O)N2`, for which the GI50 in the assay with HS 578T breast was 0.362 µM; in the assay on BT-549 breast it was 1.37 µM; in the assay with RXF 393 renal it was 0.187 µM. In addition, the values for the TGI in the assay on HS 578T breast, with BT-549 breast and with RXF 393 renal were 12.8 µM, over 100 µM and 0.587 µM, respectively.

On to `O=C1OCC2=C1C(c1ccccc1)c1cc3c(cc1N2CCO)OCO3` (centres undefined), for which the GI50 with HS 578T breast was 2.72 µM; in the assay on BT-549 breast, 4.93 µM; in the assay with RXF 393 renal, 8.03 µM. In addition, the TGI in the assay with HS 578T breast is 33.7 µM; with BT-549 breast, over 50 µM; in the assay on RXF 393 renal, 35.7 µM.

`O=C(O)c1ccccc1/C=N/N=C1c2ccccc2-c2ccccc21`: the TGI was 34.7 µM in the assay on HS 578T breast, over 100 µM in the assay with BT-549 breast and 75.8 µM in the assay on RXF 393 renal.

`COc1ccc(C(=O)c2ccc([As]=O)cc2)cc1` (centres undefined): the GI50 in the assay with HS 578T breast was 0.149 µM; in the assay on BT-549 breast, 0.166 µM; in the assay on RXF 393 renal it was 0.059 µM. The TGI amounted to 0.586 µM in the assay with HS 578T breast, 0.315 µM in the assay on BT-549 breast and 0.188 µM with RXF 393 renal.

Consider `O=C(O)[C@@H](Cc1ccc2ccccc2c1)NC(=O)n1c2ccccc2c2ccccc21`, for which the results for the GI50 in the assay with HS 578T breast, in the assay with BT-549 breast and in the assay on RXF 393 renal were 2.24 µM, 2.85 µM and 1.57 µM, respectively. For the same compound, the values for the TGI in the assay on HS 578T breast, with BT-549 breast and with RXF 393 renal were 59.6 µM, 14.2 µM and 7.15 µM, respectively.

As for `O=C(Nc1ccc(Cl)c(Cl)c1)NS(=O)(=O)c1cnccc1Oc1ccc(F)cc1`, the GI50 in the assay with HS 578T breast was 3.25 µM; with BT-549 breast it was 6.84 µM; in the assay with RXF 393 renal, 3.8 µM. Moreover, the values for the TGI in the assay with HS 578T breast, in the assay with BT-549 breast and in the assay with RXF 393 renal were over 100 µM, 40.4 µM and over 100 µM, respectively.

In the case of `C[C@H]1CCCC(O)C(O)[C@@H]2C[C@H](O[Si](C)(C)C(C)(C)C)C[C@H]2[C@H](O[Si](C)(C)C(C)(C)C)C(O)C(O)C(=O)O1` (some centres undefined), in the assay on BT-549 breast, the GI50 is 20.1 µM and the TGI was over 100 µM. In the assay on RXF 393 renal, the GI50 is 31.8 µM and the TGI was over 100 µM.

Turning to `COc1ccc(OC)c(Cn2cc3c(c2-c2ccccc2)CCc2cnoc2-3)c1`, the GI50 is 4.95 µM in the assay with HS 578T breast and 6.12 µM in the assay with RXF 393 renal. The TGI in the assay on HS 578T breast and with RXF 393 renal was over 100 µM throughout.

Regarding `CC(=O)O[C@H]1CCc2c(cc(N)c3c2C(=O)C[C@]2(C)C([C@H](C)CCCC(C)C)CCC32C)C1(C)C` (some centres undefined), the TGI in the assay on HS 578T breast, in the assay with BT-549 breast and in the assay with RXF 393 renal was over 100 µM throughout.

With `Nc1ccc(/C=C/C(=O)NCc2cc3cc(-c4ccc(C(=O)N5CCC(F)(F)CC5)cc4)cc(-c4ccc(F)cc4)c3o2)cn1`, the GI50 was over 100 µM with HS 578T breast, 5.95 µM in the assay on BT-549 breast and 37.8 µM in the assay on RXF 393 renal. Moreover, the TGI with HS 578T breast, in the assay with BT-549 breast and in the assay with RXF 393 renal was over 100 µM each time.

As to `N#Cc1ccc(NC(=O)C(CC(=O)OCc2ccccc2)NC(=O)OCc2ccccc2)cc1` (centres undefined), the GI50 with HS 578T breast and with RXF 393 renal was over 100 µM throughout. Also, the TGI in the assay on HS 578T breast and in the assay with RXF 393 renal was over 100 µM each time.

Consider `O=S(=O)(NCCCNc1nccc(-c2c(-c3ccc(F)cc3)nc3sccn23)n1)c1ccc2ccccc2c1`, for which the values for the GI50 in the assay with HS 578T breast, in the assay on BT-549 breast and with RXF 393 renal were 9.13 µM, 4.34 µM and 5.21 µM, respectively. For the same compound, the TGI in the assay with HS 578T breast, in the assay on BT-549 breast and in the assay on RXF 393 renal was over 100 µM in each case.

As for `CCC1=CC2CN(C1)Cc1c([nH]c3ccccc13)[C@@](C(=O)OC)(c1cc3c(cc1OC)N(C)[C@H]1[C@@](O)(C(=O)OC)[C@H](OC(C)=O)[C@]4(CC)C=CCN5CC[C@]31[C@@H]54)C2` (some centres undefined), the GI50 was 0.00827 µM and 0.0277 µM in the assay on HS 578T breast; < 0.005 µM and 0.043 µM in the assay on BT-549 breast. For the same compound, the TGI in the assay on HS 578T breast is 19.8 µM and 45.7 µM.

As to `COC(=O)C(/C(=N\O)C(=O)Nc1cccc(Cl)c1C)c1cnc2ccccc2n1` (centres undefined), the TGI in the assay with BT-549 breast and in the assay on RXF 393 renal was over 100 µM each time.

For the compound `O=c1c(F)cn(Cc2ccccc2CCl)c(=O)n1Cc1ccccc1CCl`, in the assay on HS 578T breast, the GI50 is 1.92 µM and the TGI worked out at 6.93 µM. Also, in the assay on BT-549 breast, the GI50 is 1.41 µM and the TGI turned out to be 2.91 µM.

For the compound `CNC(=O)c1nn(C)c2c1C(C)(C)Cc1cnc(Nc3ccc(N4CCN(C)CC4)cc3)nc1-2`, the GI50 with HS 578T breast is 0.369 µM; with BT-549 breast, 1.61 µM; in the assay with RXF 393 renal, 0.343 µM. Further, the TGI in the assay on HS 578T breast was over 2.37 µM; in the assay with BT-549 breast, over 8.77 µM; in the assay with RXF 393 renal, over 4.5 µM.

For `COc1cnc2c(c1)C(=O)c1c-2n(CCCN2CCN(C)CC2)c(=O)c2cc([N+](=O)[O-])ccc12`, in the assay with HS 578T breast, the GI50 is 14.5 µM and the TGI was 31 µM. In addition, in the assay on RXF 393 renal, the GI50 is 11.4 µM and the TGI amounted to 30.4 µM.

Turning to `c1c[nH]c(CN2CCOCC2)n1`, the TGI in the assay with HS 578T breast, in the assay with BT-549 breast and in the assay on RXF 393 renal was over 100 µM throughout.

For `O=C(O)[C@H](c1ccccc1)[C@@H](C(=O)O)c1ccccc1`, the TGI with HS 578T breast, in the assay with BT-549 breast and in the assay on RXF 393 renal was over 100 µM throughout.

As to `CCOC(=O)/C(C#N)=C\C=C(/Cl)c1ccc(Cl)cc1`, the GI50 with HS 578T breast was 22.7 µM; in the assay on BT-549 breast it was 25.8 µM; in the assay on RXF 393 renal, 21.6 µM. The TGI in the assay with HS 578T breast stood at 60.7 µM; in the assay with BT-549 breast it was 68 µM; in the assay on RXF 393 renal, 45.9 µM.

Turning to `CCCCn1c(-c2ccc(C(=O)O/N=C(\N)c3ccc4c(c3)OCO4)cc2)nc(-c2ccccc2)c1-c1ccccc1`, the results for the GI50 in the assay with HS 578T breast, in the assay with BT-549 breast and in the assay with RXF 393 renal were 1.88 µM, 2.61 µM and 1.85 µM, respectively. For the same compound, the TGI in the assay on HS 578T breast is 5.09 µM; in the assay on BT-549 breast, 7.84 µM; in the assay with RXF 393 renal, 4.93 µM.

Consider `O=C(N/N=C/c1ccccc1O)c1ccccc1`, for which the GI50 with HS 578T breast was 27.1 µM; in the assay on BT-549 breast, 3.6 µM; in the assay on RXF 393 renal it was 2.68 µM. Further, the TGI with HS 578T breast is over 100 µM; with BT-549 breast it was over 100 µM; in the assay on RXF 393 renal, 50.9 µM.

Turning to `C=C1C(=O)O[C@H]2[C@H]1CC/C(C=Nc1c(N)cc(C(F)(F)F)cc1Br)=C\CC[C@@]1(C)O[C@@H]21`, the GI50 in the assay with HS 578T breast is 2.08 µM; in the assay on BT-549 breast, 1.41 µM; in the assay on RXF 393 renal, 1.59 µM. Moreover, the TGI came out at 9.5 µM in the assay on HS 578T breast, 2.91 µM in the assay with BT-549 breast and 3.11 µM with RXF 393 renal.
